Measured values: patent US9260504B2, “N- and C-terminal substituted antagonistic analogs of GH-RH” (University of Miami, priority 2008, dated 2016)

Assays:
[1] = test system: NCI-N87 human gastric cancer; assay: NCI-N87 human gastric cancer xenografts in nude mice; assay type: in vivo; settings: 10 μg/day s.c.
Method: NCI-N87 cancers were transplanted s.c. into both flank areas of 30 female nude mice. The mice were randomly assigned into 4 experimental groups with 6 to 9 animals in each group and received single daily injections for 77 days as follows: 1. Control (vehicle solution); 2. JMR-132 (10 μg/day s.c.); 3. Peptide 1109 (10 μg/day s.c.); 4. Peptide 11479 (10 μg/day s.c.). Tumor volumes were measured once a week. The experiment was ended on day 77 by sacrificing the mice under Isoflurane anesthesia. Resulting tumors were cleaned, weighed, and snap-frozen until further analyses. Statistical analyses of the measurement results were done by two-tailed t-test, p<0.05 being considered significant. Data are presented as the means±S.E.

[2] = test system: H-460 human non-small cell lung cancer; assay: H-460 human non-SCLC xenografts in nude mice, Experiment 3; assay type: in vivo; settings: 28 days
Method: Male nude mice were implanted s.c. with 3 mm^3 pieces of H-460 human non-SCLC tumor tissue on both flanks. When tumors had grown to a mean volume of approximately 90 mm^3, the mice were randomly assigned into 8 experimental groups with 8 to 10 animals in each group and received single daily injections for 28 days as follows: 1. Control (vehicle solution); 2. JMR-132 (10 μg/day s.c.); 3. Peptide 11123 (5 μg/day s.c.); 4. Peptide 11125 (5 μg/day s.c.); 5. Peptide 11307 (5 μg/day s.c.); 6. Peptide 11317 (5 μg/day s.c.); 7. Peptide 11473 (5 μg/day s.c.); 8. Peptide 11485 (5 μg/day s.c.). Tumor volumes were measured once a week. The experiment was ended on day 28 by sacrificing the mice under Isoflurane anesthesia. Resulting tumors were cleaned, weighed, and snap-frozen until further analyses. Statistical analyses of the measurement results were done by two-tailed t-test, p<0.05 being considered significant.

Row | Substance | Number of regressing tumors ([1]; 77 days) | Tumor growth after 77 days (%) ([1]; 77 days, means±S.E.) | Tumor weights ([1]; day 77, means±S.E.) [mg] | Tumor doubling time ([1]; calculated without the regressing tumors) [days] | Tumor growth inhibition after 4 weeks (%) ([2]; 5 μg/day s.c.) | Inhibition of H-460 lung tumor growth compared with reference peptide JMR-132 ([2]; 5 μg/day vs JMR-132 10 μg/day)
1 | [(Ac-Ada)^0-Tyr^1, D-Arg^2, (Phe(F)5)^6, Ala^8, Har^9, Tyr(Me)^10, His^11, Orn^12, Abu^15, His^20, Orn^21, Nle^27, D-Arg^28, Har^29]hGH-RH(1-29)NH2 [Peptide 11479] | 1 | 235 ± 48 | 144 ± 41 | 156.7 ± 55.7 | – | –
2 | [(Ac-Ada)^0-Tyr^1, D-Arg^2, Cpa^6, Ala^8, Har^9, Tyr(Me)^10, His^11, Abu^15, His^20, Nle^27, D-Arg^28, Har^29-Ada^30]hGH-RH(1-29)NH2 [Peptide 11317] | – | – | – | – | 41.00 | more potently inhibited the growth of H-460 lung tumors than the reference peptide JMR-132
